From patent US10039729B2, “Use of kukoamine A and kukoamine B” (Tianjin Chase Sun Pharmaceutical Co., Ltd., priority 2010, dated 2018)

Test system: RAW264.7 cells
Assay: Binding and cellular internalization of LPS and CpG DNA to RAW264.7 cells (confocal microscopy)
Format: cell-based, murine
Conditions: KB 50, 100 and 200 μM, dose-dependent
Protocol: 21.1 Methods: RAW264.7 cells were cultured in 20 mm cell culture dishes for confocal microscopy applications, and diluted to 5×10^5/ml in DMEM supplemented with 10% (v/v) NCS; 1 ml of the above suspension was transferred into each cell culture dishes and cultured at 37° C. in a 5% CO2 humidified incubator for 4 h; for the purpose of experiment three groups were established, medium group, stimulation group and KB treatment group; the concentration and loading patterns of each group were consistent with Embodiment 12; the cells were then fixed with 4% paraform for 10 min after 30 min of culture, and washed thrice with PBS; nucleus were stained with DAPI (100 ng·mL^−1) for 2 min, washed with PBS thrice, mounted with a solution of 50% glycerol and 50% PBS, and stored in dark place until intensity and distribution of fluorescence of LPS and CpG DNA on RAW264.7 cells surface were observed under a confocal microscopy.

## NCCCN(CCCCNCCCNC(=O)CCc1ccc(O)c(O)c1)C(=O)CCc1ccc(O)c(O)c1 [KB, Kukoamine B]
5-FAM-CpG DNA 10 μg/ml
  green fluorescence intensity of 5-FAM (CpG DNA) on the surface of and inside RAW264.7 cells: significantly weakened
FITC-LPS 200 ng/ml
  green fluorescence intensity of FITC (LPS) on the surface of and inside RAW264.7 cells: significantly weakened
